This is an account of results in ChEMBL document CHEMBL4699435, “Synthesis and biological screening of a library of macamides as TNF-alpha inhibitors” (RSC Med Chem, 2020).

Data set [1] can be described thus: Cytotoxicity against human THP-1 cells assessed as reduction in cell viability incubated for 72 hrs by MTT assay. Type of data set: cell-based.
Data set [2] concerns THP-1. Kind of data set: Inhibition of LPS-induced TNFalpha production in human THP-1 cells incubated for 2 hrs followed by LPS stimulation and measured after 12 hrs by ELISA. The data set is classed as functional, cell-based. (An ELISA detects its analyte on a solid surface through an enzyme-linked reagent.)
For data set [3], the system named is THP-1. Kind of data set: Potency index, ratio of IC50 of N-(2-hydroxyethyl)-7Z,10Z,13Z,16Z-docosatetraenamide to IC50 of compound for inhibition of LPS-induced TNFalpha production in human THP-1 cells incubated for 2 hrs followed by LPS stimulation and measured after 12 hrs by ELISA. The data set is classed as functional.
The test system of data set [4] is THP-1. Kind of data set: Potency index, ratio of IC50 of N-oleoyldopamine-macamide to IC50 of compound for inhibition of LPS-induced TNFalpha production in human THP-1 cells incubated for 2 hrs followed by LPS stimulation and measured after 12 hrs by ELISA. Type of data set: functional.
Data set [5] has as its system THP-1. Kind of data set: Potency index, ratio of IC50 of C87 to IC50 of compound for inhibition of LPS-induced TNFalpha production in human THP-1 cells incubated for 2 hrs followed by LPS stimulation and measured after 12 hrs by ELISA. The data set is classed as functional.

The term CC50 denotes the concentration giving 50% cytotoxicity. The IC50 is the concentration that gives 50% inhibition. Read a high IC50 as weaker potency. On to `CCCCCCCC/C=C\CCCCCCCC(=O)NCc1ccccc1`, for which, in data set [1], the CC50 at 72 h stood at 97.3 µM. In data set [2], this compound gave an IC50 of 15.2 µM.
On to `CCCCCCCCCCCCCCCC(=O)NCc1ccccc1`, for which, in data set [1], the CC50 at 72 h came out at 100 µM. The IC50 in data set [2] was 43.1 µM.
Turning to `CCCCCCCCCCCCCCCCCC(=O)NCc1ccccc1`, in data set [1], the CC50 at 72 h was determined as 100 µM. The IC50 in data set [2] was found to be 16.6 µM.
On to `CCCCC/C=C\C/C=C\CCCCCCCC(=O)NCc1ccccc1`, for which, in data set [1], the half-maximal cytotoxic concentration (CC50) at 72 h worked out at 98.4 µM. Also, in data set [2], the IC50 came out at 14.2 µM.
With `CCCCC/C=C\C/C=C\CCCCCCCC(=O)OC(C)c1cc(C)cc(C)c1` (configuration not stated), the CC50 at 72 h in data set [1] was 90.1 µM. The same compound yielded an IC50 in data set [2] of 0.009 µM. Also, the results for the “Ratio IC50” value in data set [3], in data set [4] and in data set [5] were 200, 200 and 12, respectively.
`CCCCC/C=C\C/C=C\CCCCCCCC(=O)NC(C)C12CC3CC(CC(C3)C1)C2` (configuration not stated): in data set [1], the CC50 at 72 h turned out to be 90.9 µM. For the same compound, the IC50 in data set [2] came to 0.78 µM.
On the same counts, the results for `CCCCC/C=C\C/C=C\CCCCCCCC(=O)NC(C)c1cccc(C)c1` (configuration not stated) are 91.7 µM and 0.33 µM.
With `CCCCC/C=C\C/C=C\CCCCCCCC(=O)NC(C)(C)c1ccccc1`, the half-maximal cytotoxic concentration (CC50) at 72 h in data set [1] came out at 97.3 µM. Further, inhibition in data set [2] was half-maximal at 13.1 µM (IC50).
On to `CCCCC/C=C\C/C=C\CCCCCCCC(=O)NC(C)c1ccc(F)cc1` (configuration not stated), for which, in data set [1], the 50% cytotoxic concentration (CC50) at 72 h worked out at 82.5 µM. The IC50 in data set [2] was found to be 0.78 µM.
As for `CCCCC/C=C\C/C=C\CCCCCCCC(=O)NNc1ccccc1`, the CC50 at 72 h in data set [1] came to 98.1 µM. This compound gave a half-inhibitory concentration (IC50) in data set [2] of 8.9 µM.
As to `CCCCC/C=C\C/C=C\CCCCCCCC(=O)NCCc1ccccc1`, the CC50 at 72 h in data set [1] is 88.2 µM. For the same compound, the IC50 in data set [2] is 15.7 µM.
On the same counts, the results for `CCCCC/C=C\C/C=C\CCCCCCCC(=O)NC(C)c1ccc(CC)cc1` (configuration not stated) are 89.8 µM and 1.21 µM.
As to `CCCCC/C=C\C/C=C\CCCCCCCC(=O)NC(C)c1cc(C)cc(C)c1` (configuration not stated), the CC50 at 72 h in data set [1] is 93.2 µM. In addition, in data set [2], the IC50 was found to be 0.08 µM.
Take `CCCCC/C=C\C/C=C\CCCCCCCC(=O)Nc1ccccc1`: in data set [1], the CC50 at 72 h was found to be 97.8 µM. Further, the IC50 in data set [2] came out at 21 µM.
Consider `CCCCC/C=C\C/C=C\CCCCCCCC(=O)NC(CO)c1ccccc1` (configuration not stated), for which the CC50 at 72 h in data set [1] stood at 98 µM. In data set [2], the IC50 worked out at 56.8 µM.
On the same counts, the results for `CCCCC/C=C\C/C=C\CCCCCCCC(=O)NC(C)C1CCCCC1` (configuration not stated) are 93.2 µM and 0.71 µM.
Take `CCCCC/C=C\C/C=C\CCCCCCCC(=O)NC(C)c1ccc(O)cc1` (configuration not stated): the CC50 at 72 h in data set [1] amounted to 93.5 µM. The compound also gave an IC50 in data set [2] of 1.84 µM.
For the compound `CCCCC/C=C\C/C=C\CCCCCCCC(=O)NCCCc1ccccc1`, the CC50 at 72 h in data set [1] stood at 80.3 µM. Further, in data set [2], the IC50 came to 8.3 µM.
On the same counts, the results for `CCCCCCCC(=O)NCc1ccccc1` are 100 µM and 58.7 µM.
For `CCCCC/C=C\C/C=C\CCCCCCCC(=O)NC(C)c1ccc(C)cc1` (configuration not stated) the same measures were 95 µM and 0.62 µM.
On to `CCCCC/C=C\C/C=C\CCCCCCCC(=O)NC(C)c1ccc(Br)cc1` (configuration not stated), for which, in data set [1], the CC50 at 72 h came out at 81.4 µM. For the same compound, in data set [2], the IC50 was 0.74 µM.
`CCCCC/C=C\C/C=C\CCCCCCCC(=O)OCc1ccccc1`: in data set [1], the 50% cytotoxic concentration (CC50) at 72 h stood at 95.4 µM. Moreover, the IC50 in data set [2] was determined as 6.4 µM.
As for `CCCCC/C=C\C/C=C\CCCCCCCC(=O)NC(C)C(C)(C)C` (configuration not stated), in data set [1], the CC50 at 72 h amounted to 94.7 µM. Further, in data set [2], 1 µM corresponded to half-maximal inhibition (IC50).
On the same counts, the results for `CCCCC/C=C\C/C=C\CCCCCCCC(=O)NC(CC)c1ccccc1` (configuration not stated) are 96.5 µM and 19.7 µM.
For `CCCCC/C=C\C/C=C\CCCCCCCC(=O)NC(C)c1ccccc1` (configuration not stated) [MALINAMIDE], in data set [1], the CC50 at 72 h is 95.8 µM. In data set [2], this compound gave a concentration for half-maximal inhibition (IC50) of 5.2 µM.
On the same counts, the results for `CCCCCCCC/C=C\CCCCCCCC(=O)O` [OLEIC ACID] are 100 µM and 79 µM.
Regarding `CCCCCCCC/C=C\CCCCCCCC(=O)NCCc1ccc(O)c(O)c1` [OLEOYL DOPAMINE], in data set [1], the half-maximal cytotoxic concentration (CC50) at 72 h is over 100 µM. In data set [2], it took 3.54 µM to reach half-maximal inhibition (IC50).
